Laboratory results reported in patent USRE47428E1, “Modulators of methyl modifying enzymes, compositions and uses thereof” (Constellation Pharmaceuticals, Inc., priority 2013, dated 2019).
Read-outs that look alike come from different tables or passages of the source.

Tests used:
Y641N EZH2 = Y641N EZH2 (Homo sapiens, UniProt Q15910, Y641N); test: Y641N EZH2 assay, H3K27Me2 oligonucleosomes as substrate; type: biochemical
Procedure: (§1) Assays were carried out by mixing rPRC2 together with biotinylated oligonucleosome substrates in the presence of the radio-labeled enzyme co-factor, S-adenosyl-L-methionine (^3H SAM) (Perkin Elmer) and monitoring the enzymatically mediated transfer of tritiated methyl groups from ^3H SAM to histone lysine residues. The amount of resulting tritiated methyl histone product was measured by first capturing the biotinylated oligonucleosomes in streptavidin (SAV) coated FlashPlates (Perkin Elmer), followed by a wash step to remove un-reacted ^3H SAM, and then counting on a TopCount NXT 384 well plate scintillation counter (Perkin Elmer). The final assay conditions for EZH2 were as follows: 50 mM Tris Buffer pH 8.5, 1 mM DTT, 69 μM Brij-35 detergent, 5.0 mM MgCl2, 0.1 mg/mL BSA, 0.2 μM ^3H SAM, 0.2 μM biotinylated oligonucleosomes, 3.6 μM H3K27me3 peptide and 2 nM EZH2.
(§2) A 12.5 μL volume of the HMT enzyme, H3K27me3 peptide and oligonucleosome substrate in assay buffer was added to each well of the assay plate using a Multidrop Combi (Thermo-Fisher). Compounds were pre-incubated with the enzyme for 20 min, followed by initiation of the methyltransferase reaction by addition of 12.5 μL of ^3H SAM in assay buffer (final volume=25 μL). The final concentrations of compounds ranged from a top default concentration of 80 μM down to 0.16 μM in ten 2-fold dilution steps. Reactions were carried out for 60 minutes and quenched with 20 μL per well of 1.96 mM SAH, 50 mM Tris pH 8.5, 200 mM EDTA. Stopped reactions were transferred to SAV coated Flash-plates (Perkin Elmer), incubated for 120 min, washed with a plate washer, and then read on the TopCount NXT (1.0 min/well) to measure the amount of methyl histone product formed during the reaction.

EZH2 = EZH2 (Homo sapiens, UniProt Q15910); test: EZH2 assay: rPRC2 methyltransferase, 3H SAM FlashPlate; type: biochemical; details: 0.2 μM 3H SAM, 2 nM EZH2
EZH2, sequence (Q15910 whole entry): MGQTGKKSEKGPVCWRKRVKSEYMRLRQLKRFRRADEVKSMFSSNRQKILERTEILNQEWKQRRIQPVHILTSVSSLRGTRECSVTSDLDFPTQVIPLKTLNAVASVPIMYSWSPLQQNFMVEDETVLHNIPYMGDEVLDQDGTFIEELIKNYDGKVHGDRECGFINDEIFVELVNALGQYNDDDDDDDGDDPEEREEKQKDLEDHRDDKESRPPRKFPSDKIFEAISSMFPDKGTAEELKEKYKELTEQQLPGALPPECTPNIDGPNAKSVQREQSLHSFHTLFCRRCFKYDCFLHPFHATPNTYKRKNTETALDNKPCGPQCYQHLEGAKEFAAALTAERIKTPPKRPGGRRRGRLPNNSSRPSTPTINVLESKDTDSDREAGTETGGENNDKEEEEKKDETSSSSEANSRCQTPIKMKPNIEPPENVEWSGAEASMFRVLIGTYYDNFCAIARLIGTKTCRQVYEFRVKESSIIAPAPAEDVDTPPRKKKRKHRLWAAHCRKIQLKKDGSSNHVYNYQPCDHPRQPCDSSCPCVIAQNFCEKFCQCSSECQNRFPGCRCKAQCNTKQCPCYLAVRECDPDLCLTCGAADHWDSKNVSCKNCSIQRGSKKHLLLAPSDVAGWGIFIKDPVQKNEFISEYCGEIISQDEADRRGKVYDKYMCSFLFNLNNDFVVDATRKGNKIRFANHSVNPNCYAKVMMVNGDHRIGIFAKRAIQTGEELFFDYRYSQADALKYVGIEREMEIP
EZH2, sequence (O75530 whole entry partner): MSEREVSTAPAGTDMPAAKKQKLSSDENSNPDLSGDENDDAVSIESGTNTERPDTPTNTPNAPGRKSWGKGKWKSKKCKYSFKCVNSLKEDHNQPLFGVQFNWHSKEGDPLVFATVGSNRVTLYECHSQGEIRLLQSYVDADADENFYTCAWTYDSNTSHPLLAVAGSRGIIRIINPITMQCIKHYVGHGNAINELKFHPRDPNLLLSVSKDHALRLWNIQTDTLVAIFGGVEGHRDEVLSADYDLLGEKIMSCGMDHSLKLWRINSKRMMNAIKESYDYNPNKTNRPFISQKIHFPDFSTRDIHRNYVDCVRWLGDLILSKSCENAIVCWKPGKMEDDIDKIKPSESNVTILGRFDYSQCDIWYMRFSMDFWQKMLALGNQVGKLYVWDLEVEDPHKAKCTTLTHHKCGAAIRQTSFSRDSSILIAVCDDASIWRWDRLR
EZH2, sequence (Q15022 whole entry partner): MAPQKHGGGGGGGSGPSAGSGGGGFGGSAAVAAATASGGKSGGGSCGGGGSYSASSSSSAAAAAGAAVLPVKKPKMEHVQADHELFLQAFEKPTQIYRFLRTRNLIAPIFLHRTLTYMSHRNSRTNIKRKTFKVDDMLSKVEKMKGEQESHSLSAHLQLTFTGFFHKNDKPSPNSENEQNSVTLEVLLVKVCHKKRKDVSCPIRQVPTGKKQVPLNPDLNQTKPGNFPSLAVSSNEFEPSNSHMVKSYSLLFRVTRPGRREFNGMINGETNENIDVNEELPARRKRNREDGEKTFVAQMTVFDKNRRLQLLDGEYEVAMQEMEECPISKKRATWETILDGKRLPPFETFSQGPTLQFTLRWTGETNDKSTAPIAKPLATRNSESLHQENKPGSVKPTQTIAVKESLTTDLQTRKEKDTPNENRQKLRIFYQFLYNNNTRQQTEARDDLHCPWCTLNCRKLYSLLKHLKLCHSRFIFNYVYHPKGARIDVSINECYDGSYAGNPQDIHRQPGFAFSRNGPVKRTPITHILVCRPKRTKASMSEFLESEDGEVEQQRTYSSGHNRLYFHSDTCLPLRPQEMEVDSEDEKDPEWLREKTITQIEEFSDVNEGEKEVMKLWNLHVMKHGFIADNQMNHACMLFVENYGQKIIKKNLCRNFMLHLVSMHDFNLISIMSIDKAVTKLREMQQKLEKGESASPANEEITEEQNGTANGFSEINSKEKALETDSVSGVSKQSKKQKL
Procedure: as §1, §2

[1] = test system: Karpas422 human lymphoma xenograft; test: Tumor growth inhibition, subcutaneous Karpas422 human lymphoma xenograft model; type: in vivo, Mus Musculus; details: 160 mg/kg; for TGI (%) / T/C (%) / Tumor Size (mm3) on day 25: Karpas422 xenograft; for TGI (%) / T/C (%): CB-17 SCID mice; for TGI (%) / T/C (%) / Significance: day 25; for T/C (%): treated/control mean tumor volume; for Tumor Size (mm3) on day 25: female CB-17 SCID mice, day 25 after start of treatment, Mean ± SEM; for Significance: one-way ANOVA vs vehicle, tumor volume
Procedure: Number of animals: 50 mice plus spare
Animal supplier: Shanghai SLAC Laboratory Animal Co., LTD.
The Karpas422 tumor cells were maintained in vitro as suspension culture in RPMI1640 medium supplemented with 10% heat inactivated fetal calf serum at 37° C. in an atmosphere of 5% CO2 in air. The tumor cells were routinely subcultured twice weekly. The cells growing in an exponential growth phase were harvested and counted for tumor inoculation.
Each mouse was inoculated subcutaneously at the right flank with the Karpas422 tumor cells (5×10^6) in 0.2 ml of PBS with Matrigel (1:1) for tumor development. Day 23 after tumor inoculation was as day 0 after the start of treatment when the average tumor size reached approximately 300 mm^3. Each group consisted of 10 tumor-bearing mice.
Tumor size was measured three times weekly in two dimensions using a caliper, and the volume was expressed in mm^3 using the formula: V=0.536a×b^2 where a and b are the long and short diameters of the tumor, respectively. The tumor size was then used for calculations of T/C values. The T/C value (in percent) is an indication of antitumor effectiveness; T and C are the mean volumes of the treated and control groups, respectively, on a given day. TGI was calculated for each group using the formula: TGI (%)[1−(Ti−T0)/(Vi−V0)]×100; Ti is the average tumor volume of a treatment group on a given day, T0 is the average tumor volume of the treatment group on the day of treatment start, Vi is the average tumor volume of the vehicle control group on the same day with Ti, and V0 is the average tumor volume of the vehicle group on the day of treatment start.
Experimental Endpoint and Sample Collection
1). Plasma, tumor and muscle in EPZ-6438 group were collected on day 16 after the start of treatment at 6 h after dosing. Plasma, tumor and muscle in vehicle, CPI-524369, CPI-524416 and CPI-591780 groups were collected on day 25 after the start of treatment at 1 h after dosing. 2). All the blood was taken from each animal with EDTA-K2 as anticoagulant. Plasma was divided into two parts. The first part was for PK analysis; the second part was frozen for backup. 3). Tumor was divided into three parts. The first part was snap-frozen for PK; the second part was snap-frozen for PD analysis; the third part was frozen for backup. 4). Muscle was divided into two parts. The first part was snap-frozen for PK; the second part was frozen for backup.
Tumor Growth Inhibition Analysis

[2] = rPRC2, biotinylated oligonucleosomes, read-out: EZH2 IC50
[3] = Y641N EZH2 mutant enzyme, H3K27Me2 oligonucleosomes, read-out: Y641N EZH2 IC50
[4] = EZH2 IC50, rPRC2, biotinylated oligonucleosomes

Y641N EZH2, sequence (Q15910 whole entry Y641N): as the sequence (Q15910 whole entry) above, with Y641N counted along it
Y641N EZH2, sequence (O75530 whole entry partner): as the sequence (O75530 whole entry partner) above
Y641N EZH2, sequence (Q15022 whole entry partner): as the sequence (Q15022 whole entry partner) above

Structure (SMILES) | IC50 (Y641N EZH2) [nM] | IC50 (EZH2; [2]) [nM] | IC50 (Y641N EZH2; [3]) [nM] | IC50 (EZH2; [4]) [nM] | also measured
COc1cc(C)[nH]c(=O)c1CNC(=O)c1c(C)n(C(C)C(C)OC)c2ncccc12 (single isomer, unassigned) [Compound 266, N-((4-methoxy-6-methyl-2-oxo-1,2-dihydropyridin-3-yl)methyl)-1-((2R or 2S, 3R or 3S)-3-methoxybutan-2-yl)-2-methyl-1H-pyrrolo[2,3-b]pyridine-3-carboxamide] | 100 to 1000 | – | – | – | –
COc1cc(C)[nH]c(=O)c1CNC(=O)c1c(C)n(C(C)C2CCN(S(C)(=O)=O)CC2)c2ccccc12 (single isomer, unassigned) [Compound 336, (R or S)-N-((4-methoxy-6-methyl-2-oxo-1,2-dihydropyridin-3-yl)methyl)-2-methyl-1-(1-(1-(methylsulfonyl)piperidin-4-yl)ethyl)-1H-indole-3-carboxamide] | – | < 100 | < 100 | – | –
COc1cc(C)[nH]c(=O)c1CNC(=O)c1c(C)n(C(C)C2CCN(C(=O)C(C)(C)O)CC2)c2ccccc12 (single isomer, unassigned) [Compound 337, (R or S)-1-(1-(1-(2-hydroxy-2-methylpropanoyl)piperidin-4-yl)ethyl)-N-((4-methoxy-6-methyl-2-oxo-1,2-dihydropyridin-3-yl)methyl)-2-methyl-1H-indole-3-carboxamide] | – | < 100 | < 100 | – | –
COc1cc(C)[nH]c(=O)c1CNC(=O)c1c(C)n(C(C)C2CCN(C3COC3)CC2)c2ccccc12 (single isomer, unassigned) [Compound 341, (R or S)-N-((4-methoxy-6-methyl-2-oxo-1,2-dihydropyridin-3-yl)methyl)-2-methyl-1-(1-(1-(oxetan-3-yl)piperidin-4-yl)ethyl)-1H-indole-3-carboxamide] | < 100 | – | – | < 100 | –
COc1cc(C)[nH]c(=O)c1CNC(=O)c1c(C)n(C(C)C2CCN(C(=O)C(C)C)CC2)c2ccccc12 (single isomer, unassigned) [Compound 342, (R or S)-1-(1-(1-isobutyrylpiperidin-4-yl)ethyl)-N-((4-methoxy-6-methyl-2-oxo-1,2-dihydropyridin-3-yl)methyl)-2-methyl-1H-indole-3-carboxamide] | – | < 100 | < 100 | – | –
Cc1cc(OC(F)F)c(CNC(=O)c2c(C)n(C(C)C3CCN(S(C)(=O)=O)CC3)c3ccccc23)c(=O)[nH]1 (single isomer, unassigned) [Compound 344, (R or S)-N-((4-(difluoromethoxy)-6-methyl-2-oxo-1,2-dihydropyridin-3-yl)methyl)-2-methyl-1-(1-(1-(methylsulfonyl)piperidin-4-yl)ethyl)-1H-indole-3-carboxamide] | – | < 100 | < 100 | – | –
COCCN1CCC(C(C)n2c(C)c(C(=O)NCc3c(OC)cc(C)[nH]c3=O)c3ccccc32)CC1 (single isomer, unassigned) [Compound 359, (R or S)-N-((4-methoxy-6-methyl-2-oxo-1,2-dihydropyridin-3-yl)methyl)-1-(1-(1-(2-methoxyethyl)piperidin-4-yl)ethyl)-2-methyl-1H-indole-3-carboxamide] | < 100 | – | – | < 100 | –
COc1cc(C)[nH]c(=O)c1CNC(=O)c1c(C)n(C(C)C2CCN(CC(F)F)CC2)c2ccccc12 (single isomer, unassigned) [Compound 362, (R or S)-1-(1-(1-(2,2-difluoroethyl)piperidin-4-yl)ethyl)-N-((4-methoxy-6-methyl-2-oxo-1,2-dihydropyridin-3-yl)methyl)-2-methyl-1H-indole-3-carboxamide] | – | – | – | – | TGI (%) [1]: 92.75%; T/C (%) [1]: 22.59%; Tumor Size (mm3) on day 25 [1]: 385 ± 66 mm3; Significance [1]: *** (*** p < 0.001)
COc1cc(C)[nH]c(=O)c1CNC(=O)c1c(C)n(C(C)C2CCN(CC(F)(F)F)CC2)c2ccccc12 (single isomer, unassigned) [Compound 365, (R or S)-N-((4-methoxy-6-methyl-2-oxo-1,2-dihydropyridin-3-yl)methyl)-2-methyl-1-(1-(1-(2,2,2-trifluoroethyl)piperidin-4-yl)ethyl)-1H-indole-3-carboxamide] | – | – | – | – | TGI (%) [1]: 97.25%; T/C (%) [1]: 18.72%; Tumor Size (mm3) on day 25 [1]: 319 ± 67 mm3; Significance [1]: *** (*** p < 0.001)
CCc1cc(C)[nH]c(=O)c1CNC(=O)c1c(C)n(C(C)C2CCN(C)CC2)c2ccccc12 (single isomer, unassigned) [Compound 366, (R or S)-N-((4-ethyl-6-methyl-2-oxo-1,2-dihydropyridin-3-yl)methyl)-2-methyl-1-(1-(1-methylpiperidin-4-yl)ethyl)-1H-indole-3-carboxamide] | < 100 | – | – | < 100 | –
Cc1cc(C)c(CNC(=O)c2c(C)n(C(C)C3CCN(C4COC4)CC3)c3ccccc23)c(=O)[nH]1 (single isomer, unassigned) [Compound 375, (R or S)-N-((4,6-dimethyl-2-oxo-1,2-dihydropyridin-3-yl)methyl)-2-methyl-1-(1-(1-(oxetan-3-yl)piperidin-4-yl)ethyl)-1H-indole-3-carboxamide] | < 100 | – | – | < 100 | –
